# US20070149465A1, “COMPOSITIONS AND METHODS FOR PREVENTION AND TREATMENT OF CACHEXIA” (priority 2005, published 2007)
# Where two headings read alike, the source gives them in different places.
# Columns and labels:
# [1] = system: AH-inoculated rats; assay: Rat AH130 Ascites Hepatoma Model of Cancer Cachexia, AH-inoculated rats; format: in vivo, female Wistar rats; conditions: for Carcass Weights Mean / Gastrocnemius Weights Mean / Heart Weights Mean: normalized to 100 g Day 5 Total Body Weight
# Procedure: (§1) Following the method of Busquets et al (Busquets S, et al: Cancer Res 64:6725-31, 2004), female Wistar rats were inoculated (Day 0) intra-peritoneally (i.p.) with 2×10^7 cells/animal of Yoshida AH-130 ascites hepatoma (AH) cells. Control animals were inoculated with an equivalent amount of sterile saline solution. […] The animals were sacrificed on Day 5. Upon sacrifice, wet weights of heart and gastrocnemius muscle were determined. Carcass (after gastrocnemius, heart, and ascites removal) weight was also determined upon sacrifice.
# (§2) Treatment Group=Inoculation Type/Vehicle, or Treatment Group=Inoculation Type/F(x)R(y) where, Inoculation Type is either AH or Saline, F is formoterol fumarate, R is roxithromycin, and the parenthetical values are formoterol fumarate and roxithromycin doses (i.p. in mg/kg).
# [2] = system: Saline-inoculated rats; assay: Rat AH130 experiments, saline-inoculated control rats given drug; format: in vivo, female Wistar rats
# Procedure: as §1, §2
# [3] = Osmolality of formoterol filtrate in citrate buffers; format: physicochemical; conditions: 25° C.
# [4] = for Formoterol solubility: 25° C.
# [5] = cited from earlier work; for estimated shelf-life: compositions of Banerjee et al.; for rate constant of decomposition: 60° C., buffer 5 mM, ionic strength 0.05
# [6] = Exp 1 Group 3, AH, F 1, R 0 mg/kg i.p., Day 5
# [7] = Exp 2 Group 7, AH, F 1, R 0 mg/kg i.p., Day 5
# [8] = Exp 3 Group 13, AH, F 1, R 0 mg/kg i.p., Day 5
# [9] = Exp 4 Group 18, AH, F 1, R 0 mg/kg i.p., Day 5, sample weight normalized to 100 g Day 5 Total Body Weight
# [10] = Exp 2 Group 10, Saline, F 1, R 0 mg/kg i.p., Day 5, normalized to 100 g Day 5 Total Body Weight
smiles,measurement,setting,value
COc1ccc(C[C@@H](C)NC[C@H](O)c2ccc(O)c(NC=O)c2)cc1.COc1ccc(C[C@@H](C)NC[C@H](O)c2ccc(O)c(NC=O)c2)cc1.O=C(O)/C=C/C(=O)O [formoterol fumarate],Carcass Weights Mean,[1]; [6],95.35 g
same,Gastrocnemius Weights Mean,[1]; [6],0.551 g
same,Heart Weights Mean,[1]; [6],0.337 g
same,Carcass Weights Mean,[1]; [7],89.7 g
same,Gastrocnemius Weights Mean,[1]; [7],0.499 g
same,Heart Weights Mean,[1]; [7],0.348 g
same,Carcass Weights Mean,[1]; [8],93.1 g
same,Gastrocnemius Weights Mean,[1]; [8],0.489 g
same,Heart Weights Mean,[1]; [8],0.376 g
same,Carcass Mean,[1]; [9],97.8
same,Gastrocnemius Mean,[1]; [9],0.502
same,Heart Mean,[1]; [9],0.367
same,gastrocnemius muscle loss compared with AH/vehicle group,"[1]; Experiment 1, AH/F(1)R(0) group",significantly less
same,Carcass Weights Mean,[2]; [10],97.6 g
same,Gastrocnemius Weights Mean,[2]; [10],0.613 g
same,Heart Weights Mean,[2]; [10],0.410 g
same,gastrocnemius muscle weights compared with Saline/vehicle group,"[2]; Experiment 2, Saline/F(1)R(0) group",approximately the same
same,Formoterol Filtrate osmolality,"[3]; 20 mM citrate, pH 4",49 mOsm/kG
same,Formoterol Filtrate osmolality,"[3]; 20 mM citrate, pH 5",56 mOsm/kG
same,Formoterol Filtrate osmolality,"[3]; 20 mM citrate, pH 6",60 mOsm/kG
same,Formoterol Filtrate osmolality,"[3]; 20 mM citrate, pH 7",66 mOsm/kG
same,Formoterol Filtrate osmolality,"[3]; 50 mM citrate, pH 4",113 mOsm/kG
same,Formoterol Filtrate osmolality,"[3]; 50 mM citrate, pH 5",130 mOsm/kG
same,Formoterol Filtrate osmolality,"[3]; 50 mM citrate, pH 6",140 mOsm/kG
same,Formoterol Filtrate osmolality,"[3]; 50 mM citrate, pH 7",146 mOsm/kG
same,Formoterol Filtrate osmolality,"[3]; 100 mM citrate, pH 4",205 mOsm/kG
same,Formoterol Filtrate osmolality,"[3]; 100 mM citrate, pH 5",249 mOsm/kG
same,Formoterol Filtrate osmolality,"[3]; 100 mM citrate, pH 6",275 mOsm/kG
same,Formoterol Filtrate osmolality,"[3]; 100 mM citrate, pH 7",278 mOsm/kG
same,Formoterol Filtrate osmolality,"[3]; 200 mM citrate, pH 4",392 mOsm/kG
same,Formoterol Filtrate osmolality,"[3]; 200 mM citrate, pH 5",473 mOsm/kG
same,Formoterol Filtrate osmolality,"[3]; 200 mM citrate, pH 6",527 mOsm/kG
same,Formoterol Filtrate osmolality,"[3]; 200 mM citrate, pH 7",543 mOsm/kG
same,Formoterol solubility,"[4]; 20 mM citrate, pH 4",2710 µg/mL
same,Formoterol solubility,"[4]; 20 mM citrate, pH 5",2350 µg/mL
same,Formoterol solubility,"[4]; 20 mM citrate, pH 6",2470 µg/mL
same,Formoterol solubility,"[4]; 20 mM citrate, pH 7",2330 µg/mL
same,Formoterol solubility,"[4]; 50 mM citrate, pH 4",3690 µg/mL
same,Formoterol solubility,"[4]; 50 mM citrate, pH 5",2770 µg/mL
same,Formoterol solubility,"[4]; 50 mM citrate, pH 6",2780 µg/mL
same,Formoterol solubility,"[4]; 50 mM citrate, pH 7",2920 µg/mL
same,Formoterol solubility,"[4]; 100 mM citrate, pH 4",3010 µg/mL
same,Formoterol solubility,"[4]; 100 mM citrate, pH 5",2690 µg/mL
same,Formoterol solubility,"[4]; 100 mM citrate, pH 6",2870 µg/mL
same,Formoterol solubility,"[4]; 100 mM citrate, pH 7",2600 µg/mL
same,Formoterol solubility,"[4]; 200 mM citrate, pH 4",3690 µg/mL
same,Formoterol solubility,"[4]; 200 mM citrate, pH 5",2900 µg/mL
same,Formoterol solubility,"[4]; 200 mM citrate, pH 6",2720 µg/mL
same,Formoterol solubility,"[4]; 200 mM citrate, pH 7",2840 µg/mL
same,solubility,[4]; citrate buffer concentrations between 20 and 200 mM at pH 4 to pH 7,> 1000 µg/mL
same,estimated shelf-life,[5]; 5° C.,about 6.2 years
same,estimated shelf-life,[5]; 25° C.,about 7.5 months
same,rate constant of decomposition,[5]; pH 3,approximately 0.62 day^1
same,rate constant of decomposition,[5]; pH 4,~0.11 day^1
same,rate constant of decomposition,[5]; pH 5,~0.044 day^1
same,rate constant of decomposition,[5]; pH 7,~0.55 day^1
